{"source": "patent US10517889B2", "about": "“Modulators of SMAD7 expression” (Ionis Pharmaceuticals, Inc., priority 2017, dated 2019)", "key": {"[1]": {"experiment": "Organ weights after oral gavage in beagle dogs (Example 12)", "conditions": "200 mg by oral gavage for 4 weeks, day 30, in words", "method": "(§1) Groups of 24-25 week old male beagle dogs were administered 200 mg Ionis human SMAD7 oligonucleotide by oral gavage once a week for 4 weeks. There were 4 animals per group. A control group of dogs received oral administration of distilled water. Dogs were sacrificed on day 30 approximately 48 hours after the final dose and organs and plasma were harvested for further analysis."}, "mouse Smad7 mRNA [2]": {"test_system": "mouse Smad7 mRNA", "experiment": "Pharmacology: mouse Smad7 mRNA expression in liver, kidney, duodenum, ileum and colon after subcutaneous administration in CD-1 mice (Example 6)", "type": "in vivo", "conditions": "50 mg/kg subcutaneously twice a week for 7 weeks, in words", "description": "Groups of 8-9 week old male CD-1 mice were injected subcutaneously twice a week for 7 weeks with 50 mg/kg of Ionis oligonucleotides (100 mg/kg/week dose). Each group contained 4 mice. One group of male CD-1 mice was injected subcutaneously twice a week for 7 weeks with PBS. Plasma was collected for analysis on day 28.\nThe pharmacological activity of the Ionis oligonucleotides in mice was assessed by measuring mouse Smad7 mRNA expression in liver, kidney, duodenum, ileum, and colon at necropsy.\nTissue samples from all mice were analyzed for Smad7 mRNA expression using the primer probe set HTS7555 (forward sequence […], designated SEQ ID NO: 2737; reverse sequence […], designated SEQ ID NO: 2738; probe sequence […], designated SEQ ID NO: 2739), which was normalized to mRNA levels of the housekeeping gene, GAPDH. One-way ANOVA with Dunnet's comparison test was used for statistical analysis."}, "mouse Smad7 mRNA [3]": {"test_system": "mouse Smad7 mRNA", "experiment": "Murine Smad7 mRNA expression after oral administration in BALB/c mice (Example 11)", "type": "in vivo", "conditions": "orally 500 mg/kg/day for 3 weeks, in words", "description": "The objective of this study was to evaluate the efficacy of Ionis SMAD7 antisense oligonucleotides in BALB/c mice following daily oral administration. The Ionis oligonucleotides are cross-reactive with mouse Smad7 mRNA.\nGroups of BALB/c mice were orally administered 500 mg/kg/day for 3 weeks of human Smad7 oligonucleotides, ION 790615, ION 798781, or ION 830025, or mouse Smad7 oligonucleotide, ION 772797 (a 3-10-3 cEt gapmer with phosphorothioate backbone and sequence […]; designated herein as SEQ ID NO: 2743). One group of mice was orally administered PBS daily for 3 weeks. Each group contained 4 mice.\nTo evaluate the efficacy of the oligonucleotides, murine Smad7 mRNA expression in the liver, kidneys, duodenum, ileum, and colon was measured using primer probe set RTS1114."}, "murine Smad7 mRNA": {"test_system": "murine Smad7 mRNA", "experiment": "Dose-dependent inhibition of murine Smad7 mRNA in bEND cells, electroporation (Example 5, Study 2)", "type": "cell-based, mouse", "conditions": "in words", "description": "Many of the Ionis designed oligonucleotides as well as ION 736697/Mongersen are complementary to mouse Smad7 mRNA. […] After a treatment period of approximately 16 hours, the cells were washed and lyzed and RNA on 384-well Pall plates with DNase I treatment. Smad7 mRNA levels were measured by quantitative real-time PCR. Primer probe set RTS1114 (forward sequence […], designated herein as SEQ ID NO: 8; reverse sequence […], designated herein as SEQ ID NO: 9; probe sequence […], designated herein as SEQ ID NO: 10) was used to measure murine Smad7 mRNA levels. Smad7 mRNA levels were adjusted according to total RNA content, as measured by RIBOGREEN®. Results are presented as percent inhibition of Smad7 mRNA expression, relative to untreated control cells.\nMany of the Ionis oligonucleotides had greater potency than ION 736697/Mongersen."}, "[4]": {"experiment": "Pharmacokinetics: oligonucleotide concentration in tissues after oral gavage in beagle dogs (Example 12)", "type": "in vivo", "description": "There were 4 animals per group.\nCanine tissue exposure following oral administration of the Ionis SMAD7 oligonucleotides was measured in various organs and intestinal tissues.\nPlasma concentrations of Ionis oligonucleotides were also measured on Day 28 at various time points."}, "mouse Smad7 mRNA [5]": {"test_system": "mouse Smad7 mRNA", "experiment": "Murine Smad7 mRNA expression after subcutaneous administration in BALB/c mice (Example 10)", "type": "in vivo", "conditions": "50 mg/kg subcutaneous once a week for 4 weeks, 24 hours after last dose", "description": "The objective of this study was to evaluate the efficacy of Ionis SMAD7 antisense oligonucleotides compared to ION 736697/Mongersen in BALB/c mice following 4 weeks of treatment. Both ION 830025 and ION 798781 are cross-reactive with mouse Smad7 mRNA.\nGroups of BALB/c mice were subcutaneously administered 50 mg/kg of Ionis SMAD7 oligonucleotides once a week for 4 weeks. Each group contained 4 mice. One group of mice was administered PBS once a week for 4 weeks. […]"}, "human SMAD7 mRNA": {"test_system": "human SMAD7 mRNA", "experiment": "Dose-dependent inhibition of human SMAD7 mRNA expression in A431 cells, oligonucleotide added without transfection (Example 5, Study 1)", "type": "cell-based", "conditions": "SMAD7 mRNA, in words", "description": "The newly designed compounds disclosed herein are cEt-modified antisense oligonucleotides. […] The studies described below show a comparison of select cEt-modified gapmers and ION0736697/Mongersen.\nA431 cells were plated in collagen I-coated 96-well plates in DMEM with […]. Immediately after plating, 0.08 μM, 0.25 μM, 0.74 μM, 2.22 μM, 6.67 μM, or 20.00 μM concentrations of antisense oligonucleotide were added. The plates were shaken briefly before incubating at 37° C. and 10% CO2. After a treatment period of approximately 48 hours, the cells were washed and lyzed and RNA on 384-well Pall plates with DNase I treatment. SMAD7 mRNA levels were measured by quantitative real-time PCR. Primer probe set RTS5062 was used to measure human SMAD7 mRNA levels. SMAD7 mRNA levels were adjusted according to total RNA content, as measured by RIBOGREEN®. Results are presented as percent inhibition of SMAD7 mRNA expression, relative to untreated control cells.\nAll Ionis oligonucleotides had greater potency than ION 736697/Mongersen."}, "[6]": {"test_system": "human peripheral blood mononuclear cells (PBMCs)", "experiment": "Human PBMC activation assay, cytokine levels (IL-10, IL-6, MCP-1, TNF-α) in supernatant after 24 hours (Example 9)", "conditions": "human PBMCs, 24 hours, in words"}, "[7]": {"experiment": "Plasma chemistry markers after subcutaneous administration in beagle dogs (Example 8)", "conditions": "30 mg/kg subcutaneously, day 31, in words", "method": "Groups of 24-25 week old male beagle dogs were injected subcutaneously with 30 mg/kg ION Ionis oligonucleotide. There were 4 animals per group. Dogs were injected every two days for the first week (day 1, 3, and 5) and once weekly thereafter (days 8, 15, 22, and 29). A control group of dogs received subcutaneous injections of PBS. Dogs were sacrificed on day 31 approximately 48 hours after the final dose and organs and plasma were harvested for further analysis.\nTo evaluate the effect of Ionis SMAD7 oligonucleotides on liver and kidney function, plasma levels of transaminases, albumin, creatine and BUN were measured using an automated clinical chemistry analyzer (Toshiba 200FR Neo chemistry analyzer, Toshiba Co., Japan)."}, "[8]": {"experiment": "Plasma chemistry markers after oral gavage in beagle dogs (Example 12)", "conditions": "200 mg by oral gavage for 4 weeks, day 30, in words", "method": "The study was conducted to evaluate the tolerability and pharmacodynamics of select human SMAD7 antisense oligonucleotides in beagle dogs following 4 weeks of treatment. The dogs were administered oligonucleotides by oral gavage.\nas §1\nTo evaluate the effect of Ionis SMAD7 oligonucleotides on liver and kidney function, approximately 1.5 mL of blood samples were collected and put into tubes without anticoagulant for serum separation. The tubes were kept at room temperature for a minimum of 90 min and then centrifuged (approximately 3,000 rpm for 10 min) to obtain serum. Plasma levels of transaminases, albumin, bilirubin, and BUN were measured using an automated clinical chemistry analyzer (Toshiba 200FR Neo chemistry analyzer, Toshiba Co., Japan)."}, "[9]": {"experiment": "Tissue and organ histopathology after oral gavage in CD-1 mice (Example 7)", "type": "in vivo", "conditions": "daily oral gavage 500 mg/kg for one month, in words", "description": "Groups of 7-8 week old male CD-1 mice were given an oral gavage dose once daily for 4 weeks of 500 mg/kg of Ionis SMAD7 oligonucleotides. Each group contained 8 mice. One group of male CD-1 mice was administered saline by oral gavage daily.\nHistopathology evaluations were performed on the mice treated with Ionis oligonucleotides to evaluate any tissue damage in the liver (with gallbladder), kidneys, heart, spleen, thymus, mesenteric lymph nodes, and different parts of the GI tract, including duodenum, ileum, and colon (proximal and distal). Tissues were collected and fixed in 10% neutral-buffered formalin, embedded in paraffin, sectioned, and stained with hematoxylin and eosin. All the tissues were histologically unremarkable in all mice."}}}
{"substance": "ION 830025 (antisense TTTGTAAATCGAAAGC; 3-10-3 cEt gapmer, phosphorothioate, further chemistry not given here) [sodium salt]", "values": [{"measurement": "Tolerability (organ weights)", "setting": "[1]", "result": "very well tolerated"}, {"measurement": "Smad7 mRNA reduction in tissues", "setting": "mouse Smad7 mRNA [2]", "result": "significant Smad7 mRNA reduction in various tissues"}, {"measurement": "Efficacy in reducing Smad7 mRNA expression", "setting": "mouse Smad7 mRNA [3]", "result": "efficacious in reducing Smad7 mRNA expression"}, {"measurement": "Potency compared with ION 736697/Mongersen", "setting": "murine Smad7 mRNA", "result": "more potent than ION 736697/Mongersen"}, {"measurement": "Tissue accumulation of oligonucleotide", "setting": "[4]; 200 mg by oral gavage for 4 weeks, in words", "result": "Distal colon accumulation was detected"}, {"measurement": "Oligonucleotide concentration in tissues, Distal colon", "setting": "[4]; 200 mg oral gavage for 4 weeks, distal colon", "result": 0.1, "unit": "µg/g"}, {"measurement": "Oligonucleotide concentration in tissues, Duodenum", "setting": "[4]; 200 mg oral gavage for 4 weeks, duodenum", "result": 0.8, "unit": "µg/g"}, {"measurement": "Oligonucleotide concentration in tissues, Ileum", "setting": "[4]; 200 mg oral gavage for 4 weeks, ileum", "result": 0.3, "unit": "µg/g"}, {"measurement": "Oligonucleotide concentration in tissues, Kidney", "setting": "[4]; 200 mg oral gavage for 4 weeks, kidney", "result": 48.1, "unit": "µg/g"}, {"measurement": "Oligonucleotide concentration in tissues, Liver", "setting": "[4]; 200 mg oral gavage for 4 weeks, liver", "result": 7.8, "unit": "µg/g"}, {"measurement": "Oligonucleotide concentration in tissues, Proximal colon", "setting": "[4]; 200 mg oral gavage for 4 weeks, proximal colon", "result": 0.2, "unit": "µg/g"}, {"measurement": "Mouse Smad7 mRNA expression (% inhibition), Colon", "setting": "mouse Smad7 mRNA [5]; colon", "result": 32, "unit": "% inhibition"}, {"measurement": "Mouse Smad7 mRNA expression (% inhibition), Duodenum", "setting": "mouse Smad7 mRNA [5]; duodenum", "result": 26, "unit": "% inhibition"}, {"measurement": "Mouse Smad7 mRNA expression (% inhibition), Ileum", "setting": "mouse Smad7 mRNA [5]; ileum", "result": 14, "unit": "% inhibition"}, {"measurement": "Mouse Smad7 mRNA expression (% inhibition), Kidney", "setting": "mouse Smad7 mRNA [5]; kidney", "result": 5, "unit": "% inhibition"}, {"measurement": "Mouse Smad7 mRNA expression (% inhibition), Liver", "setting": "mouse Smad7 mRNA [5]; liver", "result": 46, "unit": "% inhibition"}, {"measurement": "Potency/efficacy compared with ION 736697/Mongersen", "setting": "human SMAD7 mRNA", "result": "more efficacious than ION 736697/Mongersen"}, {"measurement": "Cytokine and chemokine production (immunostimulatory profile)", "setting": "[6]", "result": "minimal cytokine and chemokine production which was similar or less than the negative control ASO"}, {"measurement": "Tolerability (plasma chemistry markers)", "setting": "[7]", "result": "well tolerated"}, {"measurement": "Tolerability (plasma chemistry markers)", "setting": "[8]", "result": "very well tolerated"}, {"measurement": "Histopathology: oligonucleotide-related tissue alterations", "setting": "[9]", "result": "not associated with any antisense oligonucleotide-related tissue alterations"}]}
